Measured values as given in patent US9550811B2, “Peptide scaffold design” (BIONOR IMMUNO AS, priority 2010, dated 2017).
Where two headings read alike, the source gives them in different places. Where no end group is shown, it is not given here. [ ]: non-standard residue; d: D form. Nle = CCCC[C@H](N)C(=O)O

What was measured:
HLA-B40 = assay: REVEAL binding assay; details: score as percentage of the signal generated by the positive control peptide
Procedure: (§1) Binding properties to HLA for the ninemers listed in table 6 were tested for the following HLA-classes:
(§2) HLA-A1, HLA-A2, HLA-A3, HLA-A11, HLA-A24, HLA-A29, HLA-B7, HLA-B8, HLA-B14, HLA-B15, HLA-B27, HLA-B35, HLA-B40.
The peptides were synthesized as a Prospector PEPscreen®: Custom Peptide Library. Peptides 8-15 amino acids in length were synthesized in 0.5-2 mg quantities with high average purity. Quality control by MALDI-TOF Mass Spectrometry was carried out on 100% of samples.
The REVEAL™ binding assay determined the ability of each candidate peptide to bind to one or more MHC class I alleles and stabilizing the MHC-peptide complex. By comparing the binding to that of high and intermediate affinity T cell epitopes, the most likely immunogenic peptides in a protein sequence can be identified. Detection is based on the presence or absence of the native conformation of the MHC-peptide complex. Each peptide is given a score relative to the positive control peptide, which is a known T cell epitope. The score of the test peptide is reported quantitatively as a percentage of the signal generated by the positive control peptide, and the peptide is indicated as having a putative pass or fail result. Assay performance is confirmed by including an intermediate control peptide that is known to bind with weaker affinity to the allele under investigation.

HLA-B35 = assay: REVEAL binding assay; details: score as percentage of the signal generated by the positive control peptide
Text: (§5) The REVEAL™ binding assay determined the ability of each candidate peptide to bind to one or more MHC class I alleles and stabilizing the MHC-peptide complex. […] Detection is based on the presence or absence of the native conformation of the MHC-peptide complex. Each peptide is given a score relative to the positive control peptide, which is a known T cell epitope.

HLA-A11 = HLA-A11 (Homo sapiens, UniProt P04439, A114D/F33Y/S129P); assay: REVEAL binding assay; details: score as percentage of the signal generated by the positive control peptide
Procedure: as §1, §2
(§3) The peptides were synthesized as a Prospector PEPscreen®: Custom Peptide Library. […] Quality control by MALDI-TOF Mass Spectrometry was carried out on 100% of samples.
(§4) The REVEAL™ binding assay determined the ability of each candidate peptide to bind to one or more MHC class I alleles and stabilizing the MHC-peptide complex. By comparing the binding to that of high and intermediate affinity T cell epitopes, the most likely immunogenic peptides in a protein sequence can be identified. Detection is based on the presence or absence of the native conformation of the MHC-peptide complex. Each peptide is given a score relative to the positive control peptide, which is a known T cell epitope.

HLA-B7 = HLA-B7 (Homo sapiens, UniProt P01889); assay: REVEAL binding assay; details: score as percentage of the signal generated by the positive control peptide
Sequence of HLA-B7 (P61769 21-119): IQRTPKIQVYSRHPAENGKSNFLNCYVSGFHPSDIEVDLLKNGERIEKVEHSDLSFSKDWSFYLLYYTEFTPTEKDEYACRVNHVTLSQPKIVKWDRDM
Sequence of HLA-B7 (P01889 25-299): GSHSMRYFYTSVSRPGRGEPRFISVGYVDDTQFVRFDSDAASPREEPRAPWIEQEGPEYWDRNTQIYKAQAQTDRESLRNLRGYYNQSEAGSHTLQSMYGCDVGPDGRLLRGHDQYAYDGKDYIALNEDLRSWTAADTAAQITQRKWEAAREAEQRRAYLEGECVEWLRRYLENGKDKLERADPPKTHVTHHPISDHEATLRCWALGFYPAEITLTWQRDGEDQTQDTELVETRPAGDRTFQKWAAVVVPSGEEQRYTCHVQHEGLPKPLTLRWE
Procedure: as §1, §2, §3, §4

HLA-A3 = HLA-A3 (Homo sapiens, UniProt P04439); assay: REVEAL binding assay; details: score as percentage of the signal generated by the positive control peptide
Sequence of HLA-A3 (P04439 25-299): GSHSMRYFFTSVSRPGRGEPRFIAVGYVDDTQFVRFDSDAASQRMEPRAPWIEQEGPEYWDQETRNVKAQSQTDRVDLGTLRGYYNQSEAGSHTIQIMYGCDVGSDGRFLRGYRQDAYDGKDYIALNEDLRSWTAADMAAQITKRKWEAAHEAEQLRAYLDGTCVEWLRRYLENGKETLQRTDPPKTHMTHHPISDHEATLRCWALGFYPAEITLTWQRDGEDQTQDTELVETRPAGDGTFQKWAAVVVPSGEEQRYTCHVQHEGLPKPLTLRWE
Sequence of HLA-A3 (P61769 21-119, further chain): as the sequence (P61769 21-119) above
Procedure: as §1, §2, §3, §4

HLA-B27 = HLA-B27 (Homo sapiens, UniProt P01889, D138H/D201E/E176V/E204Q/G107R/H137Y/K202T/N104T/N87E/Q56L/Q94K/R106L/R155S/R180L/S101D/S121N/S48T/Y140D/Y33H/Y91C); assay: REVEAL binding assay; details: score as percentage of the signal generated by the positive control peptide
Procedure: as §1, §2, §3, §4

HLA-A2 = HLA-A2 (Homo sapiens, UniProt P04439, D140Y/D185E/D98H/E176V/E277Q/G131W/G231S/I119V/I121R/I166T/I218V/N151K/N90K/P208A/P217A/Q86G/Q94H/R138H/R169H); assay: REVEAL binding assay; details: score as percentage of the signal generated by the positive control peptide
Procedure: as §1, §2, §3, §4

HLA-A24 = assay: REVEAL binding assay; details: score as percentage of the signal generated by the positive control peptide
HLA-B14 = assay: REVEAL binding assay; details: score as percentage of the signal generated by the positive control peptide
Text: as §5

HLA-B8 = assay: REVEAL binding assay; details: score as percentage of the signal generated by the positive control peptide
HLA-B15 = assay: REVEAL binding assay; details: score as percentage of the signal generated by the positive control peptide
HLA-A29 = assay: REVEAL binding assay; details: score as percentage of the signal generated by the positive control peptide
Text: as §5

HLA-A1 = assay: REVEAL binding assay; details: score as percentage of the signal generated by the positive control peptide
DC-cells = assay: Cell penetration assay: staining for biotinylated peptides, dendritic cells gated as CD11c+; type: cell-based, human; details: low concentration of peptides (208 uM)
Procedure: A set of peptides were biotinylated on N-terminal, and different combinations of aminoacids, with respect to length and type, were added to the sequence box X^1, X^3 and X^4 in the peptides as illustrated by the diagram below. The peptides were tested on cells grown from one individual blood donor.
96-well U-bottom polystyrene plates (NUNC, cat no: 163320) were used for staining of human PBMCs. Briefly, 8 ul of N- or C-terminally biotinylated peptides according to table 1 or table 2 (i.e. 5 mM, 2.5 mM & 1.25 mM tested for each peptide) were incubated at 37° C. for 2 h with 40 ul of PBMC (12.5×10^6 cells/ml) from blood donors. Cells were then washed 3× with 150 ul of Cellwash (BD, cat no: 349524), followed by resuspension of each cell pellet with 100 ul of Trypsin-EDTA (Sigma, cat no: T4424), then incubated at 37° C. for 5 min. Trypsinated cells were then washed 3× with 150 ul of Cellwash (BD, cat no: 349524), followed by resuspension with BD Cytofix/Cytoperm™ plus (BD, cat no: 554715), then incubated at 4° C. for 20 min according to manufacturer. Cells were then washed 2× with 150 ul PermWash (BD, cat no: 554715). Cells were then stained with Streptavidin-APC (BD, cat no: 554067) & Anti-hCD11c (eBioscience, cat no: 12-0116) according to manufacturer at 4° C. for 30 min aiming to visualize biotinylated peptides & dendritic cells, respectively. Cells were then washed 3× with 150 ul PermWash, followed by resuspension in staining buffer (BD, cat no: 554656) before flow cytometry. Dendritic cells were gated as CD11c+ events outside lymphocyte region (i.e. higher FSC & SSC signals than lymphocytes). 200 000 total cells were acquired on a FACSCanto II flow cytometer with HTS loader, and histograms for both total cells & dendritic cells with respect to peptide-fluorescence (i.e. GeoMean) were prepared.
As shown in table 4 the peptides according to the invention had the ability to allocate through the cell membrane.

human PBMCs = type: cell-based; details: With Cytofix/Cytoperm and trypsination, BC20

Row | Substance | Results on DC-cells (geomean peptide-fluorescence) (DC-cells; BC 16) | Results on DC-cells (geomean peptide-fluorescence) (DC-cells; BC43) | Geomean value (peptide-fluorescence) (human PBMCs; concentration 104 μM) | Geomean value (peptide-fluorescence) (human PBMCs; concentration 208 μM) | Geomean value (peptide-fluorescence) (human PBMCs; concentration 417 μM) | Geomean value (peptide-fluorescence) (human PBMCs; concentration 833 μM) | further results
1 | ADLMGYIPL |  |  |  |  |  |  | REVEAL binding score, HLA-type B40 (HLA-B40): 26.33%; REVEAL binding score, HLA-type B35 (HLA-B35): 2.08%; REVEAL binding score, HLA-type A11 (HLA-A11): 3.35%; REVEAL binding score, HLA-type B7 (HLA-B7): 0.73%; REVEAL binding score, HLA-type A3 (HLA-A3): 1.93%; REVEAL binding score, HLA-type B27 (HLA-B27): 1.01%; REVEAL binding score, HLA-type A2 (HLA-A2): 8.06%; REVEAL binding score, HLA-type A24 (HLA-A24): 0.61%; REVEAL binding score, HLA-type B14 (HLA-B14): 0.13%; REVEAL binding score, HLA-type B8 (HLA-B8): 11.40%; REVEAL binding score, HLA-type B15 (HLA-B15): 8.30%; REVEAL binding score, HLA-type A29 (HLA-A29): 14.51%; REVEAL binding score, HLA-type A1 (HLA-A1): 31.05%
2 | AEL[Nle]GYIPL |  |  |  |  |  |  | REVEAL binding score, HLA-type B40 (HLA-B40): 72.73%; REVEAL binding score, HLA-type B35 (HLA-B35): 1.91%; REVEAL binding score, HLA-type A11 (HLA-A11): 3.61%; REVEAL binding score, HLA-type B7 (HLA-B7): 1.11%; REVEAL binding score, HLA-type A3 (HLA-A3): 3.05%; REVEAL binding score, HLA-type B27 (HLA-B27): 0.77%; REVEAL binding score, HLA-type A2 (HLA-A2): 7.49%; REVEAL binding score, HLA-type A24 (HLA-A24): 0.37%; REVEAL binding score, HLA-type B14 (HLA-B14): 0.12%; REVEAL binding score, HLA-type B8 (HLA-B8): 14.74%; REVEAL binding score, HLA-type B15 (HLA-B15): 10.20%; REVEAL binding score, HLA-type A29 (HLA-A29): 20.78%; REVEAL binding score, HLA-type A1 (HLA-A1): 16.63%
3 | GPRLGVRAT |  |  |  |  |  |  | REVEAL binding score, HLA-type B40 (HLA-B40): 19.95%; REVEAL binding score, HLA-type B35 (HLA-B35): 1.83%; REVEAL binding score, HLA-type A24 (HLA-A24): 0.05%; REVEAL binding score, HLA-type B14 (HLA-B14): 0.94%; REVEAL binding score, HLA-type B8 (HLA-B8): 13.18%; REVEAL binding score, HLA-type B15 (HLA-B15): 10.01%; REVEAL binding score, HLA-type A29 (HLA-A29): 12.66%; REVEAL binding score, HLA-type A1 (HLA-A1): 13.85%
4 | RGYIPLVGAPLGRRRVARALAHGVRV [SP10] | 8627 | 9216 | 3709 | 7684 | 18607 | 43389 | 
5 | RGYIPLVGAPLGRRRVARALAHGVRVR [SP4] | 10751 | 17372 | 2946 | 7540 | 28008 | 41491 | 
6 | RGYIPLVGAPLGRRVARALAHGVRV [SP3] | 9480 | 10573 | 4308 | 10788 | 25905 | 40456 | 
7 | RLGVRATRK |  |  |  |  |  |  | REVEAL binding score, HLA-type B40 (HLA-B40): 23.05%; REVEAL binding score, HLA-type B35 (HLA-B35): 2.83%; REVEAL binding score, HLA-type A24 (HLA-A24): 0.28%; REVEAL binding score, HLA-type B14 (HLA-B14): 0.07%; REVEAL binding score, HLA-type B8 (HLA-B8): 10.21%; REVEAL binding score, HLA-type B15 (HLA-B15): 11.74%; REVEAL binding score, HLA-type A29 (HLA-A29): 12.83%; REVEAL binding score, HLA-type A1 (HLA-A1): 20.39%
8 | RRGPVVHLTLRGRRGQAGDDFS [SP20] | 19051 | 3383 | 445 | 1268 | 2457 | 7319 | 
9 | RRGPVVHLTLRRRGQAGDDFS [SP18] | 5545 | 7751 | 1038 | 1971 | 1334 | 4869 | 
10 | RRGPVVHLTLRRRGQAGDDFS [SP19] | 6522 | 6536 | 1625 | 3466 | 7201 | 17018 | 
11 | RRGYIPLVGAPLGBGRVARALAHGVRV [SP2] | 6677 | 6112 | 1211 |  | 5486 | 3136 | 
12 | RRGYIPLVGAPLGLRRVARALAHGVRV [SP17] | 67428 |  | 1500 | 12244 | 29967 | 30248 | 
13 | RRGYIPLVGAPLGRRRVARALAHGVRV [SP6] | 10233 | 14468 | 1850 | 6514 | 22195 | 32577 | 
14 | RRGYIPLVGAPLGRRVARALAHGVRV [SP5] | 21358 | 29146 | 6152 | 19065 | 46060 | 40534 | 
15 | RRRGYIPLVGAPLGBRVARALAHGVRV [SP8] | 15379 | 17836 | 2917 | 9617 | 28606 | 31976 | 
16 | SFSIELLAL |  |  |  |  |  |  | REVEAL binding score, HLA-type B40 (HLA-B40): 21.04%
17 | WGYIPLVGAPLGRRVARALAHGVRV [SP12] | 59274 | 31222 | 4316 | 8679 | 10869 | 11089 | 
18 | WWGYIPLVGAPLGRRVARALAHGVRV [SP13] | 28539 | 9129 |  | 332 | 394 | 568 | 
